The values below are quoted from earlier work in patent US10183021B2, “sGC stimulators” (Ironwood Pharmaceuticals, Inc., priority 2013, dated 2019).

The data set concerns obese mice. The following applies: cited from earlier work.

Each structure is given as a SMILES string.

As for `O=C(O)CCCCN(CCc1cc(F)ccc1OCc1ccc(-c2ccc(C(F)(F)F)cc2)cc1)Cc1ccc(C(=O)O)cc1` [BAY 60-2770], the “effect on overactive bladder” value is “ameliorates overactive bladder in obese mice”.
